According to patent US8946197B2, “Transglutaminase TG2 inhibitors, pharmaceutical compositions, and methods of use thereof” (CHDI Foundation, Inc., priority 2009, dated 2015):
pIC50: −log10 of the molar value. Where “and” joins values, the source holds several entries; their conditions need not be identical. Equal values may be shown once.

target: T1, human TG2 (Homo sapiens, UniProt P21980); assay: fluorescent screening assay for human TG2; assay type: biochemical; conditions: 20 nM TG2, 8 μM N,N-dimethylated Casein, 16 μM KxD, pH 7.4, 37° C
T1 sequence (P21980 1-687): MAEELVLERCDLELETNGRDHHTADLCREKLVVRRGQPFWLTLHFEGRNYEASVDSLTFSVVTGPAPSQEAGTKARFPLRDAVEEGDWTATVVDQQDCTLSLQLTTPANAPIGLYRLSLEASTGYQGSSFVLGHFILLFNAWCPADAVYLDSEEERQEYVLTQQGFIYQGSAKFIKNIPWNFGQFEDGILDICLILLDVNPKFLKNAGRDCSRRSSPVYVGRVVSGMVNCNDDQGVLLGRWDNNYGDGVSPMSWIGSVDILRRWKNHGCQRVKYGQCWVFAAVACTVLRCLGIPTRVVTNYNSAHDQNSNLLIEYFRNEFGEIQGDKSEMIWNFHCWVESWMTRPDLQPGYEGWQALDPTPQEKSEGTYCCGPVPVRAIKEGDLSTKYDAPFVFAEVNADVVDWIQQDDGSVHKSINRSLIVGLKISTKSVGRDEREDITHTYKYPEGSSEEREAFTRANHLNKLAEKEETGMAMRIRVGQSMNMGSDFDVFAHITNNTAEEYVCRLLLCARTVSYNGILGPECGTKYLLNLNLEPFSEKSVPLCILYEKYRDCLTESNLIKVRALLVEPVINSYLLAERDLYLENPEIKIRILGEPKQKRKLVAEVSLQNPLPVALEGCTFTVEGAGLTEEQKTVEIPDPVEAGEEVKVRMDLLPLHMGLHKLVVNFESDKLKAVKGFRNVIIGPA
Description: (§1) The fluorescent screening assay for human TG2 was performed as described herein: Assay conditions were 20 nM TG2, 8 μM N,N-dimethylated Casein (NMC) and 16 μM K×D (used for all transglutaminase assays) in 25 mM Hepes, pH 7.4, 250 mM NaCl, 2 mM MgCl2, 0.5 mM CaCl2, 0.2 mM DTT, 0.05% Pluronic F-127 at 37° C. A time point was taken with a microplate reader (Safire or Ultra, Tecan; ex: 350 nm, em: 535 nm) every 3 minutes for up to 2 hours and the initial linear reaction progress was used to determine the reaction velocity as a measure for enzyme activity. Assay conditions were identical for human TG6 and similar for human TG1 and mouse TG2 apart from enzyme concentration (mTG2 at 5 nM; TG1 at 10 nM) and CaCl2 concentration (0.2 mM for mTG2; 0.05 mM for TG1). Factor XIIIa was activated using 0.1 μg/μl thrombin (Sigma) in 35 mM Tris pH 8.0 for 20 min at 30° C. and the transamidation reaction was performed with 20 nM Factor XIIIa in 50 mM Tris pH 8.0, 1.25 mM CaCl2, 0.05% Pluronic, 0.2 mM DTT. TG3 was activated with 0.02 μg/μl thrombin under the same conditions as Factor XIIIa and assay conditions were 10 nM TG3 in 50 mM Hepes, pH 8, 20 mM CaCl2, 0.2 mM DTT, 0.05% Pluronic F-127.
as §1, with “A” for “The”

| Compound | pIC50 |
| --- | --- |
| C=CC(=O)Nc1ccc(S(=O)(=O)N2CCC(C(=O)N(C)c3ccccc3)CC2)cc1 [1-(4-Acryloylamino-benzenesulfonyl)-piperidine-4-carboxylic acid methyl-phenyl-amide] | > 7.00 and 6.00 to 7.00 |
| C=CC(=O)Nc1ccc(S(=O)(=O)N2CCN(C(=O)OC(C)(C)C)CC2)c(Cl)c1 [4-(4-Acryloylamino-2-chloro-benzenesulfonyl)-piperazine-1-carboxylic acid tert-butyl ester] | 6.00 to 7.00 and > 7.00 |
| C=CC(=O)Nc1ccc(S(=O)(=O)N2CCN(C(=O)OC(C)(C)C)CC2)c(OC)c1 [4-(4-Acryloylamino-2-methoxy-benzenesulfonyl)-piperazine-1-carboxylic acid tert-butyl ester] | 4.60 to 6.00 |
| C=CC(=O)Nc1ccc(S(=O)(=O)N2CCN(C(=O)OC(C)(C)C)CC2)c(C)c1 [4-(4-Acryloylamino-2-methyl-benzenesulfonyl)-piperazine-1-carboxylic acid tert-butyl ester] | 4.60 to 6.00 |
| C=CC(=O)Nc1ccc(S(=O)(=O)N2CCN(C(=O)OCc3ccccc3)CC2)cc1F [4-(4-Acryloylamino-3-fluoro-benzenesulfonyl)-piperazine-1-carboxylic acid benzyl ester] | 4.60 to 6.00 |
| C=CC(=O)Nc1ccc(S(=O)(=O)N2CCN(C(=O)OCc3ccccc3)C(CC(=O)NC3C4CC5CC(C4)CC3C5)C2)cc1 (centres unmarked) [4-(4-Acryloylamino-benzenesulfonyl)-2-(adamantan-2-ylcarbamoylmethyl)-piperazine-1-carboxylic acid benzyl ester] | 6.00 to 7.00 and > 7.00 |
| C=CC(=O)Nc1ccc(S(=O)(=O)N2CCN(C(=O)OC(C)(C)C)C(c3ccco3)C2)cc1 (centres unmarked) [4-(4-Acryloylamino-benzenesulfonyl)-2-furan-2-yl-piperazine-1-carboxylic acid tert-butyl ester] | 6.00 to 7.00 and > 7.00 |
| C=CC(=O)Nc1ccc(S(=O)(=O)N2CCN(C(=O)OC(C)(C)C)[C@@H](C(C)C)C2)cc1 [4-(4-Acryloylamino-benzenesulfonyl)-2-isopropyl-piperazine-1-carboxylic acid tert-butyl ester] | 6.00 to 7.00 and > 7.00 |
| C=CC(=O)Nc1ccc(S(=O)(=O)N2CCN(C(=O)OCc3ccccc3)C(CC(=O)OC)C2)cc1 (centres unmarked) [4-(4-Acryloylamino-benzenesulfonyl)-2-methoxycarbonylmethyl-piperazine-1-carboxylic acid benzyl ester] | 6.00 to 7.00 and > 7.00 |
| C=CC(=O)Nc1ccc(S(=O)(=O)N2CCN(C(=O)OCc3ccccc3)[C@@H](C)C2)cc1 [4-(4-Acryloylamino-benzenesulfonyl)-2-methyl-piperazine-1-carboxylic acid benzyl ester] | 6.00 to 7.00 and > 7.00 |
| C=CC(=O)Nc1ccc(S(=O)(=O)N2CCN(C(=O)OCc3cccc(F)c3F)CC2)cc1 [4-(4-Acryloylamino-benzenesulfonyl)-piperazine-1-carboxylic acid 2,3-difluoro-benzyl ester] | 6.00 to 7.00 and > 7.00 |
| C=CC(=O)Nc1ccc(S(=O)(=O)N2CCN(C(=O)OCc3cccc(OC)c3OC)CC2)cc1 [4-(4-Acryloylamino-benzenesulfonyl)-piperazine-1-carboxylic acid 2,3-dimethoxy-benzyl ester] | 6.00 to 7.00 and > 7.00 |
| C=CC(=O)Nc1ccc(S(=O)(=O)N2CCN(C(=O)OCc3c(F)cccc3F)CC2)cc1 [4-(4-Acryloylamino-benzenesulfonyl)-piperazine-1-carboxylic acid 2,6-difluoro-benzyl ester] | 6.00 to 7.00 and > 7.00 |
| C=CC(=O)Nc1ccc(S(=O)(=O)N2CCN(C(=O)OCc3ccccc3Cl)CC2)cc1 [4-(4-Acryloylamino-benzenesulfonyl)-piperazine-1-carboxylic acid 2-chloro-benzyl ester] | 6.00 to 7.00 and > 7.00 |
| C=CC(=O)Nc1ccc(S(=O)(=O)N2CCN(C(=O)OCc3ccccc3C)CC2)cc1 [4-(4-Acryloylamino-benzenesulfonyl)-piperazine-1-carboxylic acid 2-methyl-benzyl ester] | 6.00 to 7.00 and > 7.00 |
| C=CC(=O)Nc1ccc(S(=O)(=O)N2CCN(C(=O)OCc3cc(F)cc(F)c3)CC2)cc1 [4-(4-Acryloylamino-benzenesulfonyl)-piperazine-1-carboxylic acid 3,5-difluoro-benzyl ester] | 6.00 to 7.00 and > 7.00 |
| C=CC(=O)Nc1ccc(S(=O)(=O)N2CCN(C(=O)OCc3cccc(Cl)c3)CC2)cc1 [4-(4-Acryloylamino-benzenesulfonyl)-piperazine-1-carboxylic acid 3-chloro-benzyl ester] | 6.00 to 7.00 and > 7.00 |
| C=CC(=O)Nc1ccc(S(=O)(=O)N2CCN(C(=O)OCc3cccc(F)c3)CC2)cc1 [4-(4-Acryloylamino-benzenesulfonyl)-piperazine-1-carboxylic acid 3-fluoro-benzyl ester] | 6.00 to 7.00 and > 7.00 |
| C=CC(=O)Nc1ccc(S(=O)(=O)N2CCN(C(=O)OCc3ccc(CCCC)cc3)CC2)cc1 [4-(4-Acryloylamino-benzenesulfonyl)-piperazine-1-carboxylic acid 4-butyl-benzyl ester] | 4.60 to 6.00 |
| C=CC(=O)Nc1ccc(S(=O)(=O)N2CCN(C(=O)OCc3ccc(F)cc3)CC2)cc1 [4-(4-Acryloylamino-benzenesulfonyl)-piperazine-1-carboxylic acid 4-fluoro-benzyl ester] | > 7.00 and 6.00 to 7.00 |
| C=CC(=O)Nc1ccc(S(=O)(=O)N2CCN(C(=O)OCc3ccc(C)cc3)CC2)cc1 [4-(4-Acryloylamino-benzenesulfonyl)-piperazine-1-carboxylic acid 4-methyl-benzyl ester] | 6.00 to 7.00 and > 7.00 |
| C=CC(=O)Nc1ccc(S(=O)(=O)N2CCN(C(=O)OCc3ccc(C(C)(C)C)cc3)CC2)cc1 [4-(4-Acryloylamino-benzenesulfonyl)-piperazine-1-carboxylic acid 4-tert-butyl-benzyl ester] | 4.60 to 6.00 |
| C=CC(=O)Nc1ccc(S(=O)(=O)N2CCN(C(=O)NC3C4CC5CC(C4)CC3C5)CC2)cc1 (centres unmarked) [4-(4-Acryloylamino-benzenesulfonyl)-piperazine-1-carboxylic acid adamantan-2-ylamide] | 6.00 to 7.00 and > 7.00 |
| C=CC(=O)Nc1ccc(S(=O)(=O)N2CCN(C(=O)NCc3ccccc3)CC2)cc1 [4-(4-Acryloylamino-benzenesulfonyl)-piperazine-1-carboxylic acid benzylamide] | 6.00 to 7.00 and > 7.00 |
| C=CC(=O)Nc1ccc(S(=O)(=O)N2CCN(C(=O)OC3CCCC3)CC2)cc1 [4-(4-Acryloylamino-benzenesulfonyl)-piperazine-1-carboxylic acid cyclopentyl ester] | 6.00 to 7.00 and > 7.00 |
| C=CC(=O)Nc1ccc(S(=O)(=O)N2CCN(C(=O)N(C)C)CC2)cc1 [4-(4-Acryloylamino-benzenesulfonyl)-piperazine-1-carboxylic acid dimethylamide] | 6.00 to 7.00 and > 7.00 |
| C=CC(=O)Nc1ccc(S(=O)(=O)N2CCN(C(=O)OCC)CC2)cc1 [4-(4-Acryloylamino-benzenesulfonyl)-piperazine-1-carboxylic acid ethyl ester] | 6.00 to 7.00 and > 7.00 |
| C=CC(=O)Nc1ccc(S(=O)(=O)N2CCN(C(=O)OCC(C)C)CC2)cc1 [4-(4-Acryloylamino-benzenesulfonyl)-piperazine-1-carboxylic acid isobutyl ester] | 6.00 to 7.00 and > 7.00 |
| C=CC(=O)Nc1ccc(S(=O)(=O)N2CCN(C(=O)OC(C)C)CC2)cc1 [4-(4-Acryloylamino-benzenesulfonyl)-piperazine-1-carboxylic acid isopropyl ester] | 6.00 to 7.00 and > 7.00 |
